Reference: US20260157376A1, “METHOD OF CONTROLLING, LIMITING OR PREVENTING OOMYCETES” (priority 2022, published 2026)

Tested on: Pythium ultimum
Experiment: In vitro growth inhibition of Pythium ultimum in PDB nutrient broth, 96-well microtiter plate
Assay type: cell-based
Conditions: 24° C., 48 hours

## N.N.O=[PH](O)O [Diammonium phosphonate]
500 ppm
  Observed efficacy (%): 50%
1000 ppm
  Observed efficacy (%): 70%

## COCC(=O)N(c1c(C)cccc1C)[C@H](C)C(=O)OC [Mefenoxam, reference compound]
0.007 ppm
  Observed efficacy (%): 0%
0.02 ppm
  Observed efficacy (%): 20%
0.06 ppm
  Observed efficacy (%): 50%

## Inpyrfluxam [reference compound]
20 ppm
  Observed efficacy (%): 0%

## Monopotassium phosphite
125 ppm
  Observed efficacy (%): 20%
250 ppm
  Observed efficacy (%): 20%
500 ppm
  Observed efficacy (%): 20%
